From patent US20020028938A1, “Prostaglandin endoperoxide H synthase biosynthesis inhibitors” (priority 1997, published 2002)

Experiments:
[1] = tested on: carrageenan induced paw edema; test: Carrageenan induced paw edema (CPE) in rats; type: in vivo; settings: 10 mpk oral, rat, 3 hours after carrageenan; read-out: CPE % Inhib. @ 10 mpk
In short: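 Male Sprague-Dawley rats (170–190 g) dosed orally in PEG 400, 1 h before subplantar 0.1 ml 1% lambda carrageenan in right hindpaw. Plethysmographic paw volume at 0 and 3 h; edema as difference, % inhibition versus control mean (±SEM), Dunnett's test, ED50 by linear regression.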

[2] = tested on: air pouch prostaglandin biosynthesis (Cox-2); test: Carrageenan induced air pouch prostaglandin biosynthesis model (CAP); type: in vivo, rat; settings: 4 h; 3 mpk, rat; read-out: CAP % Inhib. @ 3 mpk
In short: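 Male Sprague Dawley rats with dorsal air pouches (20 mL air day 0, 10 mL day 3) received 0.2% lambda carrageenan in saline into the pouch on day 7. Compounds dosed at 0.1 to 10 mg/kg 30 min before carrageenan; pouch lavaged 4 h later, prostaglandins measured by EIA. Percent inhibition versus control mean; ED50 by linear regression.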

[3] = target: T1, recombinant human Cox-2 (r-hu Cox-2) (Homo sapiens, UniProt P35354); test: Recombinant human PGHS-2 enzyme assay (RHUCX2); type: biochemical; settings: read-out: RHUCX2 IC50 (parenthetical value)
T1 construct: made in house; host or cells: baculovirus/Sf9 insect cells (microsomes)
T1 sequence (P35354 18-604): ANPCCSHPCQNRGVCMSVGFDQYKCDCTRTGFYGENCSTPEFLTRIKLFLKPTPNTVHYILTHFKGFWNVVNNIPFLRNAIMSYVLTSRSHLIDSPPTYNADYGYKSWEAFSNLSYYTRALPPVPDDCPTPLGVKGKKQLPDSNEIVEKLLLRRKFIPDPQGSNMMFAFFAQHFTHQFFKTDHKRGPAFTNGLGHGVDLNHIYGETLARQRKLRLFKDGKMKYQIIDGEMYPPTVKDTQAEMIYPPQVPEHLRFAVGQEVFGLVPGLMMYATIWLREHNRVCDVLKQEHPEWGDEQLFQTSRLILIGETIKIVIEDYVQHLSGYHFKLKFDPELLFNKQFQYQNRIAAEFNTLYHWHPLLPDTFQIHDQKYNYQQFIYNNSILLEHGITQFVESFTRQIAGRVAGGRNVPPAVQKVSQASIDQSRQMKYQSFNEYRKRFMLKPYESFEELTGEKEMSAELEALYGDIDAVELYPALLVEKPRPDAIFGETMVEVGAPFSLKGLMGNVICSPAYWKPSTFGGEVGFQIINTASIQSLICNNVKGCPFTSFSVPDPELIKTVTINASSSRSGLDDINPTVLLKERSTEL
In short: (§1)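 PGE2 formed with and without drug quantified by EIA against matrix-matched standards; percent inhibition relative to control mean, IC50 by linear regression.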

[4] = target: T2, Cox-1 in Monocyte U937 cells (Homo sapiens, UniProt P23219); test: Monocyte U937 cell Cox-1 assay; type: cell-based; settings: read-out: U937 IC50 (parenthetical value)
T2 construct: endogenous in cells; host or cells: U937 monocyte cells (ATCC)
Protocol: Human amnionic WISH cells were grown to 80% confluence in 48 well plates. Following removal of the growth medium and two washings with Geys Balanced Salt Solutn, 5 ng IL-1β /ml (UBI, Lake Placid, N.Y.) was added to the cells with or without test compound in DMSO (0.01% v/v) in Neuman-Tytell Serumless Medium (GIBCO, Grand Island, N.Y.). Following an 18 hour incubation to allow for the maximal induction of PGHS-2, the conditioned medium was removed and assayed for PGE2 content by EIA analysis as described above.
Monocyte U937 (ATCC, Rockville, Md.) cells were grown in a similar fashion to the WISH cells. After incubation, the conditioned medium was removed and assayed for […] by EIA analysis as described above.

[5] = target: T3, human amnionic whole cell cyclooxygenase-2 (WISH cells) (Homo sapiens, UniProt P35354); test: IL-1β induced PGE2 production in WISH cells; type: cell-based; settings: read-out: Wish IC50 (parenthetical value)
T3 construct: endogenous in cells; host or cells: human amnionic WISH cells, induced with IL-1beta
T3 sequence (P35354 18-604): T1 sequence (P35354 18-604)
In short: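 Confluent (80%) WISH cells were stimulated with 5 ng/ml IL-1β in serum-free Neuman-Tytell medium, with or without test compound in DMSO (0.01% v/v). PGE2 in the culture medium was measured by EIA against standards prepared in the same medium, read by optical density.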

[6] = target: T4, recombinant human Cox-1 (r-hu Cox1) (Homo sapiens, UniProt P23219); test: Recombinant human PGHS-1 enzyme assay (RHUCX1); type: biochemical; settings: read-out: RHUCX1 % Inh. at Dose
T4 construct: made in house; host or cells: baculovirus/Sf9 insect cells (microsomes)
In short: as §1

T4 sequence (P23219 24-599): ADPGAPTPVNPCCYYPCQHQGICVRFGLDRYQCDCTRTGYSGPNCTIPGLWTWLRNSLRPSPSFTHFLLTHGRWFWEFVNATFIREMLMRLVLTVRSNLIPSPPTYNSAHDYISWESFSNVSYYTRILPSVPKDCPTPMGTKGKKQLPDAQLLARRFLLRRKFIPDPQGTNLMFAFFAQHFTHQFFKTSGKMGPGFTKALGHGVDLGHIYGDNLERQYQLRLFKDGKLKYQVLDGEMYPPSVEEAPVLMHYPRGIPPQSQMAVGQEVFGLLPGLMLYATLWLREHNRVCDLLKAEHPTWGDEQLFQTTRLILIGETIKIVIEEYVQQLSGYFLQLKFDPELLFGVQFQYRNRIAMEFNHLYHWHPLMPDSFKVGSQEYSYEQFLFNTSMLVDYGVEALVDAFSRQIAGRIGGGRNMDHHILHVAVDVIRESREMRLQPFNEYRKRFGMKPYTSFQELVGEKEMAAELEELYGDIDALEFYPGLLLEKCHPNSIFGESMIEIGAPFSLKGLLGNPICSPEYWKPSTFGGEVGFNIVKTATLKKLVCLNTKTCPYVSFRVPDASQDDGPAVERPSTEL
T2 sequence (P23219 24-599): as above

What does the source list for `NS(=O)(=O)c1ccc(-c2cnn(-c3ccc(F)cc3)c(=O)c2-c2ccc(F)cc2)cc1` [Example 89]?
inhibition in vivo at 10 mg/kg [1]: 45.5%; inhibition in vivo at 3 mg/kg [2]: 94%; IC50 [3]: 350 nM; IC50 [4]: 3800 nM; melting point: 213 to 216 °C; IC50 [5]: 50 nM; inhibition at 10 µM ([6]; 10 μM): 40%; inhibition at 30 µM ([6]; 30 μM): 62%
